Consider 68 molecules from ChEMBL document CHEMBL1124229, “Spiro hydantoin aldose reductase inhibitors” (J Med Chem, 1988).

The IC50 is the concentration that inhibits the measured activity by half. A high value points to a need for much substance. By ED50 is commonly meant the midpoint of the dose-response relation.

Test [1] addresses Aldo-keto reductase family 1 member B1 (Bos taurus, UniProt P16116). Briefly: In vitro inhibition of partially purified calf lens aldose reductase.
The species named for a further test is Rattus norvegicus. Briefly: Ability to cause 50% reduction in sorbitol levels of sciatic nerve of streptozotocinized rats was determined. It counts as functional.
Where [2] appears, read: Rattus norvegicus, Sciatic nerve, read-out: ED50.

For `O=C(O)C1CCSc2cc(Cl)c(Cl)cc21` (centres undefined), the concentration for half-maximal inhibition (IC50) in test [1] worked out at 10 µM.
For `COc1cc2c(c(OC)c1OC)C1(CC2)NC(=O)NC1=O` (centres undefined), the IC50 in test [1] was found to be 100 µM.
Regarding `Cc1cc(C)c2c(c1C)OCCC21NC(=O)NC1=O` (centres undefined), in test [1], the IC50 is 1 µM.
With `O=C1NC(=O)C2(CCCc3sccc32)N1` (centres undefined), the ED50 in the test listed under Rattus norvegicus (setting [2]) was determined as 25 mg/kg. In test [1], this molecule came in with an IC50 of 100 µM.
The like results for `O=C1NC(=O)C2(CCOc3c(Cl)cc(Cl)cc32)N1` (centres undefined) were, in that order, 0.25 mg/kg and less than 0.1 µM.
The like results for `O=C1NC(=O)C2(CCCc3ncccc32)N1` (centres undefined) were, in that order, 10 mg/kg and 10 µM.
In the case of `O=C1NC(=O)C2(CCSc3cc(Cl)ccc32)N1` (centres undefined), in the test listed under Rattus norvegicus (setting [2]), the ED50 is greater than 1.5 mg/kg. Besides, half-maximal inhibition in test [1] (IC50) required 1 µM.
The corresponding values for `O=C1NC(=O)C2(CCOc3cc(C(F)(F)F)ccc32)N1` (centres undefined) are 5 mg/kg and 1 µM.
With `O=C1NC(=O)C2(CCCc3occc32)N1` (centres undefined), the ED50 in the test filed under Rattus norvegicus (setting [2]) amounted to 25 mg/kg.
For the molecule `O=C1CC2(CCCc3ccccc32)CN1` (centres undefined), in the test filed under Rattus norvegicus (setting [2]), the 50% effective dose (ED50) is greater than 25 mg/kg. Further, the 50% inhibitory concentration (IC50) in test [1] was greater than 100 µM.
Take `CSc1ccc2c(c1)C1(CCO2)NC(=O)NC1=O` (centres undefined): in the test listed under Rattus norvegicus (setting [2]), the median effective dose (ED50) is less than 25 mg/kg. In test [1], this molecule returned an IC50 of 1 µM.
Take `Cc1cc2c(n1C)CCCC21NC(=O)NC1=O` (centres undefined): in the test listed under Rattus norvegicus (setting [2]), the ED50 was greater than 25 mg/kg. For the same molecule, the IC50 in test [1] was greater than 100 µM.
The like results for `COc1ccc(Cl)c2c1CCCC21NC(=O)NC1=O` (centres undefined) were, in that order, greater than 25 mg/kg and greater than 100 µM.
The like results for `O=C1NC(=O)C2(CCOc3c(Cl)cccc32)N1` (centres undefined) were, in that order, greater than 1.5 mg/kg and 1 µM.
For the molecule `O=C1NCC2(CCc3ccccc32)N1` (centres undefined), in test [1], the half-maximal inhibitory concentration (IC50) was greater than 100 µM.
For the molecule `O=C1NC(=O)C2(CCCc3ccccc32)O1` (centres undefined), the 50% effective dose (ED50) in the test listed under Rattus norvegicus (setting [2]) is greater than 50 mg/kg. The molecule also had a half-inhibitory concentration (IC50) in test [1] of 10 µM.
`COc1ccc(Cl)cc1C1(C)NC(=O)NC1=O` (centres undefined) registered an IC50 in test [1] greater than 100 µM.
For `COc1ccc2c(c1)C1(CCS2)NC(=O)NC1=O` (centres undefined), in the test filed under Rattus norvegicus (setting [2]), the ED50 is greater than 5 mg/kg. The molecule also had an IC50 in test [1] of 10 µM.
For the molecule `O=C1NC(=O)C2(CCOc3ccc(Cl)cc32)O1` (centres undefined), the ED50 in the test listed under Rattus norvegicus (setting [2]) is greater than 1.5 mg/kg.
On to `O=C1CC2(CCc3ccccc32)C(=O)N1` (centres undefined), for which the median effective dose (ED50) in the test filed under Rattus norvegicus (setting [2]) was greater than 2.5 mg/kg. Moreover, the half-maximal inhibitory concentration (IC50) in test [1] is greater than 100 µM.
The corresponding values for `NC(=O)C1(NC=O)CCc2ccccc21` (centres undefined) are greater than 10 mg/kg and 100 µM.
The molecule `O=C(O)C1CCSc2ccccc21` (centres undefined) returned an IC50 in test [1] of 100 µM.
As for `O=C1NC(=O)C2(Cc3ccccc3C2)N1`, the ED50 in the test listed under Rattus norvegicus (setting [2]) was greater than 25 mg/kg. In test [1], this molecule yielded an IC50 greater than 100 µM.
As to `CN(C)S(=O)(=O)c1ccc2c(c1)C1(CCO2)NC(=O)NC1=O` (centres undefined), in the test filed under Rattus norvegicus (setting [2]), the ED50 was greater than 5 mg/kg. In test [1], this molecule had an IC50 of 100 µM.
The corresponding values for `O=C1NC(=O)C2(CCOc3ccccc32)N1` (centres undefined) are 5 mg/kg and 10 µM.
In test [1], `O=C(O)C1CCOc2c(Cl)cc(Cl)cc21` (centres undefined) registered a concentration for half-maximal inhibition (IC50) of 10 µM.
As for `COc1ccc2c(c1)C1(CC2)NC(=O)NC1=O` (centres undefined), the ED50 in the test filed under Rattus norvegicus (setting [2]) worked out at 10 mg/kg. In test [1], half-maximal inhibition (IC50) was put at 10 µM.
In the case of `Cc1ccc(C)c2c1OCCC21NC(=O)NC1=O` (centres undefined), the median effective dose (ED50) in the test listed under Rattus norvegicus (setting [2]) is greater than 1.5 mg/kg. The molecule also showed an IC50 in test [1] of 1 µM.
The like results for `O=C1NC(=O)C2(CCCC3CCCCC32)N1` (centres undefined) were, in that order, less than 25 mg/kg and greater than 100 µM.
For `O=C1NC(=O)C2(CCOc3ccc(-c4ccccc4)cc32)N1` (centres undefined), the ED50 in the test listed under Rattus norvegicus (setting [2]) is greater than 1.5 mg/kg. The half-inhibitory concentration (IC50) in test [1] was less than 100 µM.
`O=C(O)C1CCOc2ccccc21` (centres undefined) registered a 50% inhibitory concentration (IC50) in test [1] of 100 µM.
Turning to `O=C1NC(=O)C2(CCSc3cc(Cl)c(Cl)cc32)N1` (centres undefined), the ED50 in the test listed under Rattus norvegicus (setting [2]) turned out to be 2.5 mg/kg. This molecule returned an IC50 in test [1] of less than 0.1 µM.
`O=C1NC(=O)C2(CCOc3c(F)cccc32)N1` (centres undefined) registered an IC50 in test [1] of less than 100 µM.
Take `O=C1NC(=O)[C@]2(CCOc3ccc(F)cc32)N1`: in the test listed under Rattus norvegicus (setting [2]), the 50% effective dose (ED50) was determined as 25 mg/kg.
`O=C(O)C1CCOc2c1cc(Cl)c1ccccc21` (centres undefined): the median effective dose (ED50) in the test filed under Rattus norvegicus (setting [2]) is greater than 25 mg/kg. Also, the IC50 in test [1] stood at 1 µM.
The corresponding values for `COc1ccc2c(c1)CCC21NC(=O)NC1=O` (centres undefined) are greater than 25 mg/kg and 10 µM.
The like results for `Cc1cc(C)c2c(c1)C1(CCO2)NC(=O)NC1=O` (centres undefined) were, in that order, greater than 1.5 mg/kg and 1 µM.
Take `O=C1NC(=O)C2(CCSc3c(Cl)cccc32)N1` (centres undefined): the 50% effective dose (ED50) in the test filed under Rattus norvegicus (setting [2]) is greater than 1.5 mg/kg. The molecule further returned an IC50 in test [1] of 100 µM.
The like results for `O=C1NCNC12CCCc1ccccc12` (centres undefined) were, in that order, 25 mg/kg and greater than 100 µM.
The corresponding values for `S=C1NC(=S)C2(CCCc3ccccc32)N1` (centres undefined) are greater than 25 mg/kg and greater than 100 µM.
As to `O=C1CCC2(CCCc3ccccc32)C(=O)N1` (centres undefined), in the test listed under Rattus norvegicus (setting [2]), the ED50 is greater than 25 mg/kg. The molecule also gave an IC50 in test [1] greater than 100 µM.
The like results for `O=C1NC(=O)C2(CCOc3cc(Cl)c(Cl)cc32)N1` (centres undefined) were, in that order, less than 1.5 mg/kg and less than 0.1 µM.
As to `O=C1NC(=O)C2(CCCCc3ccccc32)N1` (centres undefined), the 50% effective dose (ED50) in the test listed under Rattus norvegicus (setting [2]) is greater than 25 mg/kg. The IC50 in test [1] is greater than 100 µM.
Regarding `O=C1NC(=O)C2(CCOc3c2ccc2ccccc32)N1` (centres undefined), the ED50 in the test listed under Rattus norvegicus (setting [2]) is greater than 1.5 mg/kg. Besides, the concentration for half-maximal inhibition (IC50) in test [1] was less than 100 µM.
For the molecule `O=C1NC(=O)C2(CCS(=O)(=O)c3c(Cl)cc(Cl)cc32)N1` (centres undefined), the ED50 in the test filed under Rattus norvegicus (setting [2]) is greater than 1.5 mg/kg. Besides, half-maximal inhibition in test [1] (IC50) was put at 0.1 µM.
In test [1], `O=C(O)C1CCSc2ccc(Cl)cc21` (centres undefined) displayed an IC50 of less than 100 µM.
As to `O=CNC(=O)NC1CCc2ccccc21` (centres undefined), in the test filed under Rattus norvegicus (setting [2]), the ED50 is greater than 10 mg/kg. Besides, in test [1], the concentration for half-maximal inhibition (IC50) was greater than 100 µM.
The like results for `CN1C(=O)N(C)C2(CCCc3ccccc32)C1=O` (centres undefined) were, in that order, 25 mg/kg and greater than 100 µM.
In test [1], `O=C(O)C1CCc2ccccc21` (centres undefined) had an IC50 greater than 100 µM.
On to `NC(=O)NC(=O)C1CCc2ccccc21` (centres undefined), for which, in the test listed under Rattus norvegicus (setting [2]), the 50% effective dose (ED50) is greater than 10 mg/kg. The same molecule had an IC50 in test [1] of 100 µM.
The corresponding values for `O=C1NC(=O)C2(CCCC2c2ccccc2)N1` (centres undefined) are greater than 25 mg/kg and greater than 100 µM.
`COc1cccc2c3c(ccc12)C1(CCO3)NC(=O)NC1=O` (centres undefined): the ED50 in the test listed under Rattus norvegicus (setting [2]) is greater than 1.5 mg/kg. The molecule further showed an IC50 in test [1] of 0.1 µM.
Consider `Cc1cc(Cl)cc2c1OCCC21NC(=O)NC1=O` (centres undefined), for which the median effective dose (ED50) in the test listed under Rattus norvegicus (setting [2]) is less than 1.5 mg/kg. Besides, the concentration for half-maximal inhibition (IC50) in test [1] was less than 0.1 µM.
In test [1], `O=C1NC(=O)C2(CCOc3ccc(CN4CCCCC4)cc32)N1` (centres undefined) registered an IC50 of 100 µM.
Turning to `O=C1NC(=O)C2(CCOc3c(-c4ccccc4)cccc32)N1` (centres undefined), in the test filed under Rattus norvegicus (setting [2]), the 50% effective dose (ED50) is 10 mg/kg.
With `O=C1NC(=O)[C@@]2(CCOc3ccc(F)cc32)N1` (stereo in doubt; 32) [SORBINIL], the ED50 in the test listed under Rattus norvegicus came to 0.75 mg/kg.
Consider `O=C1NC(=O)C2(CCC(C(=O)O)c3ccccc32)N1` (centres undefined), for which the half-inhibitory concentration (IC50) in test [1] was greater than 100 µM.
Same read-out and setting: next, `O=C1NC(=O)C2(CCSc3c(Cl)ccc(Cl)c32)N1` (centres undefined): greater than 100 µM; `O=C(O)C1CCCc2ccccc21` (centres undefined): greater than 100 µM.
Regarding `CC1CCC2(NC(=O)NC2=O)c2ccccc21` (centres undefined), the 50% effective dose (ED50) in the test filed under Rattus norvegicus (setting [2]) was greater than 25 mg/kg. The IC50 in test [1] was 100 µM.
As for `O=C1NC(=O)C2(CCCc3[nH]ccc32)N1` (centres undefined), the ED50 in the test filed under Rattus norvegicus (setting [2]) was greater than 25 mg/kg. Further, the IC50 in test [1] is greater than 100 µM.
For the molecule `O=C1NC(=S)NC12CCCc1ccccc12` (centres undefined), the concentration for half-maximal inhibition (IC50) in test [1] is greater than 100 µM.
Molecule `O=C(O)C1Cc2ccccc2C1` had an IC50 in test [1] of 100 µM.
`O=C1NC(=O)C2(CCSc3c(Cl)cc(Cl)cc32)N1` (centres undefined) returned a half-inhibitory concentration (IC50) in test [1] of less than 0.1 µM.
`COc1ccc(Cl)c2c1C1(CCO2)NC(=O)NC1=O` (centres undefined): in test [1], the half-maximal inhibitory concentration (IC50) was greater than 100 µM.
In the case of `O=C1NC(=O)C2(CCC(c3ccccc3)c3ccccc32)N1` (centres undefined), the ED50 in the test listed under Rattus norvegicus (setting [2]) was greater than 25 mg/kg.
In the case of `O=C1NC(=O)C2(CCOc3ccc(Oc4ccccc4)cc32)N1` (centres undefined), in the test filed under Rattus norvegicus (setting [2]), the ED50 is 25 mg/kg.
Still for that read-out and setting: next, `O=C1NC(=O)C2(CCc3ccccc32)O1` (centres undefined): greater than 25 mg/kg.
